The source made the active and inactive calls.
Legend:
[1] = target: T1, DNA repair and recombination protein RAD54-like (Homo sapiens, UniProt Q92698); test: RAD54 Holliday junction migration blockers – biochemical, fluorescence, cherry-picked samples, dose series, confirmation (AID 651657); format: functional
T1 sequence (Q92698 whole entry): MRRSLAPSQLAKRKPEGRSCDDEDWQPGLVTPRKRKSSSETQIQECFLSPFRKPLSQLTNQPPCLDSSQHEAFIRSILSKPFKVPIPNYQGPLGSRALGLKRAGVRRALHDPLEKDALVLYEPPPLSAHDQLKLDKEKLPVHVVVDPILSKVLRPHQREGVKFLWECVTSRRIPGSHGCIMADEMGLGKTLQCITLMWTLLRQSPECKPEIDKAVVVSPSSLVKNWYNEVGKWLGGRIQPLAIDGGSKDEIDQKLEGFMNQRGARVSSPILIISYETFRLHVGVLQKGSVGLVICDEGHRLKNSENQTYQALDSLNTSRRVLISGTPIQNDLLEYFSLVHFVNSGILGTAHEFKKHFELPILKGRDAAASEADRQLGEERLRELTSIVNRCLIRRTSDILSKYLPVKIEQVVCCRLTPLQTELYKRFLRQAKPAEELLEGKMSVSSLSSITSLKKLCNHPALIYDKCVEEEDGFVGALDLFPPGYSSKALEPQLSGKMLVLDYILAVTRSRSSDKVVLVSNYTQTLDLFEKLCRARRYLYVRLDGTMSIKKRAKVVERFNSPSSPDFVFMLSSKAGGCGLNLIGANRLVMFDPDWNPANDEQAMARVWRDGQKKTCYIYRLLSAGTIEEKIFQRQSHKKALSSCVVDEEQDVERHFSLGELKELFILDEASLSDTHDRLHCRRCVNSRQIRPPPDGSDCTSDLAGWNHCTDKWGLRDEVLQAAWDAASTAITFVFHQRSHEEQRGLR

[2] = target: Beta-galactosidase (Escherichia coli, UniProt Q8VNN2); test: PubChem AID 485352; format: functional
[3] = target: T2, Type-1 angiotensin II receptor (Homo sapiens, UniProt P30556); test: antagonism of angiotensin II type 1 receptor – cell-based, uHTS hits, selectivity assay for APJ receptor antagonist project, dose response (AID 463214); format: functional;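 further: antagonist potency against angiotensin II stimulated AT1 response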
T2 sequence (P30556 whole entry): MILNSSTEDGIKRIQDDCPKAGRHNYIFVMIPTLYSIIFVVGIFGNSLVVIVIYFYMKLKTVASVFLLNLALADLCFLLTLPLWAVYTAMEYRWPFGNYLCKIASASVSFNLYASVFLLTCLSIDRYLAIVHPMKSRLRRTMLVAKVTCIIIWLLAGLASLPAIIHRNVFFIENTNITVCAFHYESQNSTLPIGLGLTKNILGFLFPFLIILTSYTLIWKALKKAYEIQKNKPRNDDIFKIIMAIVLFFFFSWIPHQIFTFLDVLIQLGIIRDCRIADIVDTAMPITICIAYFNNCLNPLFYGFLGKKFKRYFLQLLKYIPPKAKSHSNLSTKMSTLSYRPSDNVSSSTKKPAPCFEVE

[4] = system: Vero; test: viability of Vero cells under compound – cytotoxicity control for flavivirus capping enzyme inhibitors (AID 588742); format: functional; settings: Chlorocebus sabaeus
[5] = blockers of HIV-1 ZM109 envelope-driven cell-cell fusion – HeLa effector, CEM target cells, luciferase, cherry-pick, dose response (AID 652058); format: functional, cell-based;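 further: luciferase signal from HIV-1 Env mediated cell-cell fusion of effector and target cells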
[6] = target: Glucose-6-phosphate 1-dehydrogenase (Homo sapiens, UniProt P11413); test: inhibition of Homo sapiens G6PD, dose series – biochemical, fluorescence, selectivity assay for P. falciparum G6PD inhibitor project, dose response (AID 504792); format: functional
[7] = Vero E6 cell cytotoxicity, dose response, cytotoxicity control for non-replicating M. tuberculosis project, secondary assay (AID 492998); format: functional, VeroE6; settings: Vero C1008
[8] = cells; format: functional
[9] = target: T3, Calpain-2 catalytic subunit (Sus scrofa, UniProt P43367); test: m-calpain protease blockers, concentration series – biochemical, fluorogenic peptide substrate, dose response (AID 1420); format: functional
T3 sequence (P43367 whole entry): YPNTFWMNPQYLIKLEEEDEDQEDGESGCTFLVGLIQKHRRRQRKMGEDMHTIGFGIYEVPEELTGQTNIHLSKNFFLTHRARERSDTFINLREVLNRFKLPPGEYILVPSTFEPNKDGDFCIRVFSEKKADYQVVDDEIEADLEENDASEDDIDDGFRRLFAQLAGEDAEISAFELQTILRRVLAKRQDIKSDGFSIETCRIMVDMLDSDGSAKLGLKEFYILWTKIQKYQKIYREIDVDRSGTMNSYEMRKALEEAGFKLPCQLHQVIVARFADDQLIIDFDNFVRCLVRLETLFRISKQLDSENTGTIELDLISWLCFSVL

[10] = target: Induced myeloid leukemia cell differentiation protein Mcl-1 (Homo sapiens, UniProt Q07820); format: functional
[11] = target: T4, Replicative DNA helicase DnaB (Mycobacterium tuberculosis, UniProt P9WMR3); test: DnaB intein splicing inhibitors, dose response, biochemical, cell-free fluorescence (AID 449749); format: functional
T4 sequence (P9WMR3 whole entry): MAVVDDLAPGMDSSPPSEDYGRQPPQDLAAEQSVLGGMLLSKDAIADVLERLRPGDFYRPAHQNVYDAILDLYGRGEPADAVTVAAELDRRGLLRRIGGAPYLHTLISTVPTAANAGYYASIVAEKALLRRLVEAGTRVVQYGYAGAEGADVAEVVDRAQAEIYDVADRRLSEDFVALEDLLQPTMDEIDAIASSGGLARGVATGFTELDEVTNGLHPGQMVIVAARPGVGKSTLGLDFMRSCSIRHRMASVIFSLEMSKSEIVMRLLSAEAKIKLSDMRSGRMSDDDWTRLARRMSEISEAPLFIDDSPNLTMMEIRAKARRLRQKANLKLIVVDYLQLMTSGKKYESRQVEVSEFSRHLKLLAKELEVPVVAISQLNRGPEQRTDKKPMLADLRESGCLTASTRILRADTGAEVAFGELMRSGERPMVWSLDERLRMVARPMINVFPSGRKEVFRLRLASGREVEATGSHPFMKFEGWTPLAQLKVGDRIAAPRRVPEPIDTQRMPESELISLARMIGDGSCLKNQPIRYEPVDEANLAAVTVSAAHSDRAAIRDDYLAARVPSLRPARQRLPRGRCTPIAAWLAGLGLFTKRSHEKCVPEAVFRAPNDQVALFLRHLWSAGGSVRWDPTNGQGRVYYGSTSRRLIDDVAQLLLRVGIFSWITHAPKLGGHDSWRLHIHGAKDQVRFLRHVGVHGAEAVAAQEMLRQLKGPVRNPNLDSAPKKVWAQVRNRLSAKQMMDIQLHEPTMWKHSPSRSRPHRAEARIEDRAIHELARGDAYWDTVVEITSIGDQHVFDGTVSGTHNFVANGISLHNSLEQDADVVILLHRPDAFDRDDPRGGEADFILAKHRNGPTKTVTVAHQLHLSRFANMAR

[12] = target: T5, Protein RecA (Mycobacterium tuberculosis, UniProt P9WHJ3); test: Fluorescence Cell-Free Homogeneous Dose Retest to Identify Inhibitors of RecA-Intein Splicing Activity. [Related pubchem assays (depositor defined):AID2097, AID2223, AID489010, AID492950]; format: functional
T5 sequence (P9WHJ3 whole entry): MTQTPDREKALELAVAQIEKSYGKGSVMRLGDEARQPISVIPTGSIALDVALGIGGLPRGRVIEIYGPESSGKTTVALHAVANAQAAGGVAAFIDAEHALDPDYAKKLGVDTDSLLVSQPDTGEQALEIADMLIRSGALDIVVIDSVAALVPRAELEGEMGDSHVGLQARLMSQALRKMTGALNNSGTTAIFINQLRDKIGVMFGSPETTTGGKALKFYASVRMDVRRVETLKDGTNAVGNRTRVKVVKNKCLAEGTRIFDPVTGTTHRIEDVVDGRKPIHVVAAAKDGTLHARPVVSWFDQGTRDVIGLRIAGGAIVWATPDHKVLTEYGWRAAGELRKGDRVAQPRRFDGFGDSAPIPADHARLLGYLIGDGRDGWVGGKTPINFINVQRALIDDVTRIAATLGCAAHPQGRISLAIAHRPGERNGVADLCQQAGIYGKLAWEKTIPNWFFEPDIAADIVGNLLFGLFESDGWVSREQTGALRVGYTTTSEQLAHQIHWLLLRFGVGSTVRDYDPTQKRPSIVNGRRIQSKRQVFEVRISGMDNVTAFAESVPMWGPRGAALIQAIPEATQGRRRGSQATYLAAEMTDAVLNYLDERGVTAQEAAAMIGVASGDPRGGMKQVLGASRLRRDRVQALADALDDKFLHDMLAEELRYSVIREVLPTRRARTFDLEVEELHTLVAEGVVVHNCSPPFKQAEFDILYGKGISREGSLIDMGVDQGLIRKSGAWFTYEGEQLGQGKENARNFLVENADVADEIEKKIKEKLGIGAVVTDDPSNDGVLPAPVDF

[13] = target: T6, Fatty acid synthase (Homo sapiens, UniProt P49327); test: inhibition of human FAS-TE enzyme activity – biochemical, endpoint fluorescence intensity, uHTS hits, dose response (AID 624327); format: functional;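 further: fluorescence from hydrolysis of an O-methyl fluorescein acyl ester substrate by the enzyme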
[14] = target: T6, Fatty acid synthase; test: inhibition of human FAS-TE enzyme activity – biochemical, kinetic fluorescence intensity, dose response (AID 624326); format: functional;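 further: rate of fluorescence rise from hydrolysis of a fluorogenic O-methyl fluorescein ester substrate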
[15] = target: T7, RNA-binding protein pos-1 (Caenorhabditis elegans, UniProt G5EF15); test: disruptors of C. elegans POS-1 RNA interaction – biochemical, fluorescence polarization, dose response (AID 1964);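 further: purified POS-1 fused to maltose binding protein made in E. coli; potency of compounds blocking POS-1 binding to fluorescent RNA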
T7 sequence (G5EF15 whole entry): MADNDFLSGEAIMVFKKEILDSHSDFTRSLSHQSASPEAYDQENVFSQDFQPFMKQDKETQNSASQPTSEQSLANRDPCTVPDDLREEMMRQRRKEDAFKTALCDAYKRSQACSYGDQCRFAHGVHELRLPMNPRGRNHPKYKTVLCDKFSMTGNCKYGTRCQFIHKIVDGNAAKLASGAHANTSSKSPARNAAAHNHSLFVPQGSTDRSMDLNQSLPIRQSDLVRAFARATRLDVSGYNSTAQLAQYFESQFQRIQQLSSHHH

[16] = target: T8, Zinc finger protein mex-5 (Caenorhabditis elegans, UniProt Q9XUB2); test: potency of MEX-5 RNA-binding blockers – biochemical, C. elegans, fluorescence polarization, dose response (AID 1960)
T8 sequence (Q9XUB2 whole entry): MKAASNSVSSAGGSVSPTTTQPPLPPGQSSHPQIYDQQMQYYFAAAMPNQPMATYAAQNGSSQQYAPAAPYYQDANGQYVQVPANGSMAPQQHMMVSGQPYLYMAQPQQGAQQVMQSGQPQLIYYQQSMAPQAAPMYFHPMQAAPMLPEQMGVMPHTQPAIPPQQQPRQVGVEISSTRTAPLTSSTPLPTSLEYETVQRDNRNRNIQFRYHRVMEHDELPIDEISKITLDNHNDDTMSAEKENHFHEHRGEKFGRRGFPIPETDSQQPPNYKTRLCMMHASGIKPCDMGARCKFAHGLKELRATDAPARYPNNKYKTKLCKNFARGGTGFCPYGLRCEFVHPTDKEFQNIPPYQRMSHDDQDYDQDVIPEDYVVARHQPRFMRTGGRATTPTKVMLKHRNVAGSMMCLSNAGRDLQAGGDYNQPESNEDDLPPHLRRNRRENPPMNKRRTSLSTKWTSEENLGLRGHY

[17] = target: Large T antigen (Simian virus 40, UniProt P03070); format: functional, Betapolyomavirus macacae;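 further: Confirmatory-stage PubChem screen for compounds that inhibit SV40 T antigen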
[18] = target: Nonstructural protein 1 (Influenza A virus, UniProt Q194T2); format: functional, Influenza A virus (A/California/07/2009(H1N1))
[19] = target: Genome polyprotein (dengue virus type 2, UniProt P29990); test: flavivirus cap methylation enzyme inhibition – biochemical, confirmation dose response, primary screen (AID 588689); format: functional

Glucose-6-phosphate 1-dehydrogenase, sequence (P11413 whole entry): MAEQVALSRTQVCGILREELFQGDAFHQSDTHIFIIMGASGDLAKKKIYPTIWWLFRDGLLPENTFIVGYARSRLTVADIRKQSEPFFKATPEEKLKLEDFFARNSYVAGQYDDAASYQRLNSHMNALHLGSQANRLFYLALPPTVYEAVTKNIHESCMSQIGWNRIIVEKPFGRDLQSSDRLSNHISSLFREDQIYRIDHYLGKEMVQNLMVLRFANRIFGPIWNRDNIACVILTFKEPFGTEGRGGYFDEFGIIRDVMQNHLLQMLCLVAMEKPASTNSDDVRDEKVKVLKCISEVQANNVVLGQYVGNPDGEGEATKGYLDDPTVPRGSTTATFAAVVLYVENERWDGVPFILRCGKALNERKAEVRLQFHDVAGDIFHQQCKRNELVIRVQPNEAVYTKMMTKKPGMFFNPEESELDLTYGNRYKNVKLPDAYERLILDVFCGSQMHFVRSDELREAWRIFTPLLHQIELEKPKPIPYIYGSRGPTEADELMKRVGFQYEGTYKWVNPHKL
Beta-galactosidase, sequence (Q8VNN2 whole entry): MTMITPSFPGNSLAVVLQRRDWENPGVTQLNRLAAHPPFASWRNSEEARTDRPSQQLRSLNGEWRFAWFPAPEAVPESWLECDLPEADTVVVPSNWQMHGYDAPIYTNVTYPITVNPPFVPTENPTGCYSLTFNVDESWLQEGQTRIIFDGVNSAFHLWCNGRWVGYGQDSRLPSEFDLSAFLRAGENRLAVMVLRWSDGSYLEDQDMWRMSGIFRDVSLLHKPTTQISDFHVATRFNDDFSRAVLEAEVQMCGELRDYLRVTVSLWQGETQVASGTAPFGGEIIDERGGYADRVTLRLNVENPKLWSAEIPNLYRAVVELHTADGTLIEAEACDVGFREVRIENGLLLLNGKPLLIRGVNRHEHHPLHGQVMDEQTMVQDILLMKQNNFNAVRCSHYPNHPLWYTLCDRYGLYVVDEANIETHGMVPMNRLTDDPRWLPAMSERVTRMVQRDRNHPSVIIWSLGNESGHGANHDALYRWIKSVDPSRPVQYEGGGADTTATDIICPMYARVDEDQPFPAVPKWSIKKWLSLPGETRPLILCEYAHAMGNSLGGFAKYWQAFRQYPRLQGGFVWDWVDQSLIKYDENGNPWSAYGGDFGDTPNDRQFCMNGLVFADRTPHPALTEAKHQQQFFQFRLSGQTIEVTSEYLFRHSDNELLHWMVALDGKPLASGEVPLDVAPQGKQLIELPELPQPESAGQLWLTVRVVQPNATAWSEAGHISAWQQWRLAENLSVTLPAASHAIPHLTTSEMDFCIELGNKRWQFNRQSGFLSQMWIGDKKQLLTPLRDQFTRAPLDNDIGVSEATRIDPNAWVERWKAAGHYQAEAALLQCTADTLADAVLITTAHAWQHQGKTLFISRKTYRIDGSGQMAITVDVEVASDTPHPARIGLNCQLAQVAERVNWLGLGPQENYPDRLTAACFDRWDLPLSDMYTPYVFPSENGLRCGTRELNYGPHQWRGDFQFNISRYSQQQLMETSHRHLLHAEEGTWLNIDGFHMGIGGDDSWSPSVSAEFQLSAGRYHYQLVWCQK
T6 sequence (P49327 whole entry): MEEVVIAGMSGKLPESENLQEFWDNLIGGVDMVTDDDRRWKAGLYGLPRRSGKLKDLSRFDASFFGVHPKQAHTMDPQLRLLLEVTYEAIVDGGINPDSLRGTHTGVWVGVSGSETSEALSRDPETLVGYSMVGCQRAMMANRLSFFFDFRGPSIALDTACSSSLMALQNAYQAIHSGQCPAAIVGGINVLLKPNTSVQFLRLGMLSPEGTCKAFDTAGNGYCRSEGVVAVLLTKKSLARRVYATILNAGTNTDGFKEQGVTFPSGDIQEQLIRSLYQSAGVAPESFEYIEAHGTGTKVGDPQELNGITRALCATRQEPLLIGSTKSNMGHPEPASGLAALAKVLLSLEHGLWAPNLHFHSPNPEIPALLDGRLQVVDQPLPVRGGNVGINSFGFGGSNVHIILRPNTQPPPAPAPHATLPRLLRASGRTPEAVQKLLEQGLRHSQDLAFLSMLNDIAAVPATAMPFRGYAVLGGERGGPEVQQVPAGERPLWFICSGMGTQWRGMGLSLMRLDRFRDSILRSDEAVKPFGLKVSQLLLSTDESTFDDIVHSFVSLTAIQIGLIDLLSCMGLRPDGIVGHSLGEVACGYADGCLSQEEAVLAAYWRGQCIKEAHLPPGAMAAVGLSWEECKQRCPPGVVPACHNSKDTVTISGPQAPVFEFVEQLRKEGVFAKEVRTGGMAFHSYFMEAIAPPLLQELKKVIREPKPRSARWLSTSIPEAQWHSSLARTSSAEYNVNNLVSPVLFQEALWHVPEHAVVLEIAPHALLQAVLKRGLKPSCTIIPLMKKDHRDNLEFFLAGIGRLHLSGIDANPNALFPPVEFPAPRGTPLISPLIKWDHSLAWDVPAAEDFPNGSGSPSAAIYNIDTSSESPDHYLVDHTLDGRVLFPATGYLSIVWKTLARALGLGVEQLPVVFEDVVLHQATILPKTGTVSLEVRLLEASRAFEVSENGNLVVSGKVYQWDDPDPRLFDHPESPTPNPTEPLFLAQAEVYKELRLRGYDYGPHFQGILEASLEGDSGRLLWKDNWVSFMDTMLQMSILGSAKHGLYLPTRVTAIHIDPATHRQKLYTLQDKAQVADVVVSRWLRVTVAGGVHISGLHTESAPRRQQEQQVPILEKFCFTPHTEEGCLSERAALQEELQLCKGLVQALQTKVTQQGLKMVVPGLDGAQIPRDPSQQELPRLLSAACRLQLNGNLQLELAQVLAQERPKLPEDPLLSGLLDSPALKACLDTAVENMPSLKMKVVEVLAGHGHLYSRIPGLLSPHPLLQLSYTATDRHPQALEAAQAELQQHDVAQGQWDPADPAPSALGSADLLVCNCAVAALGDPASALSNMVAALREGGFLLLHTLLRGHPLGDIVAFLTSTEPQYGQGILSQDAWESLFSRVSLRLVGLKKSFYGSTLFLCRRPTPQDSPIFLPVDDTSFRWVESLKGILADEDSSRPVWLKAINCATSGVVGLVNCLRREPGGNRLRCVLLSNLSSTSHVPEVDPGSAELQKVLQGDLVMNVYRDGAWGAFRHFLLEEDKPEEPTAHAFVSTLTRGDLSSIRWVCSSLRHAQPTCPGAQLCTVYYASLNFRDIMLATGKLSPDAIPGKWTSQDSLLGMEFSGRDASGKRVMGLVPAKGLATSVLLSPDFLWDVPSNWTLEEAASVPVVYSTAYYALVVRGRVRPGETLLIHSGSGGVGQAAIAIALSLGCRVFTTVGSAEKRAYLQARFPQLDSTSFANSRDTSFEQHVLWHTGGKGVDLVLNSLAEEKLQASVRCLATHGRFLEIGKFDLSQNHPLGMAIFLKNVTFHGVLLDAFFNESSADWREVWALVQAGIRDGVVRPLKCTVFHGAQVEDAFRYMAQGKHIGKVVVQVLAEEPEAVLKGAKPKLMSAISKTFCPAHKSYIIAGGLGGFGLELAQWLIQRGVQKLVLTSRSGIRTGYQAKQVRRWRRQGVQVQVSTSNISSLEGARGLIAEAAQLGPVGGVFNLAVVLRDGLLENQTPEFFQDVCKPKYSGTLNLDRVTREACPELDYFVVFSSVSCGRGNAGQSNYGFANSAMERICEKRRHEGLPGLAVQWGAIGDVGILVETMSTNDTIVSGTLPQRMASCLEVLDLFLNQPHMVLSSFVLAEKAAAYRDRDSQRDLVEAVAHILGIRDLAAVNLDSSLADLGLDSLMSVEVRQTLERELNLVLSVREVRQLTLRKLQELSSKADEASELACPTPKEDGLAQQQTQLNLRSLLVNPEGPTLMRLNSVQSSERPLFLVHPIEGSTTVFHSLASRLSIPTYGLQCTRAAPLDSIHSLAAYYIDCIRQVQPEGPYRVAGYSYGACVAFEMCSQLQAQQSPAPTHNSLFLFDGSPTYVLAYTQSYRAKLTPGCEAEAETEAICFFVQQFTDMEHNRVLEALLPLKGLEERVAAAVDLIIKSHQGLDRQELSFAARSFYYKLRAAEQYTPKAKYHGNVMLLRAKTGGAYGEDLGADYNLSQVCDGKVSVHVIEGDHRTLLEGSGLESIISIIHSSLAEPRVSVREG
Large T antigen, sequence (P03070 whole entry): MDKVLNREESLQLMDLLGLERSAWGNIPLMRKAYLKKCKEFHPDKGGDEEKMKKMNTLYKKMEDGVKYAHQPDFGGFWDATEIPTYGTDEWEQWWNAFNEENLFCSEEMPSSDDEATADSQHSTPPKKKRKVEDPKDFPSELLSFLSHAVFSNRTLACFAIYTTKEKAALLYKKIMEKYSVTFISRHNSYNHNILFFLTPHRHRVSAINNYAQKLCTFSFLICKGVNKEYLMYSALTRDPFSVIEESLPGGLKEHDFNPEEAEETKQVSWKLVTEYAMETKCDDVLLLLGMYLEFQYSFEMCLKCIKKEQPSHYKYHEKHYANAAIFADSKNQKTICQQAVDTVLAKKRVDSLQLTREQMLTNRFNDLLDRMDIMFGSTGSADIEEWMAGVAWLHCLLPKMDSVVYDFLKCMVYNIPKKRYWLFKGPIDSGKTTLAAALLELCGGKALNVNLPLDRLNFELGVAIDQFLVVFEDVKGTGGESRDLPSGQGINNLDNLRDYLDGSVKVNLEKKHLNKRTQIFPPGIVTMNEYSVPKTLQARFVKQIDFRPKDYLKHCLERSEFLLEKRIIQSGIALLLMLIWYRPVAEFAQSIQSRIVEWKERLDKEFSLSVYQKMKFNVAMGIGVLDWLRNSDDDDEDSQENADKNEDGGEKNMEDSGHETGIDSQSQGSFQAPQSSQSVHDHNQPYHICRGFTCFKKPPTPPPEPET
Induced myeloid leukemia cell differentiation protein Mcl-1, sequence (Q07820 whole entry): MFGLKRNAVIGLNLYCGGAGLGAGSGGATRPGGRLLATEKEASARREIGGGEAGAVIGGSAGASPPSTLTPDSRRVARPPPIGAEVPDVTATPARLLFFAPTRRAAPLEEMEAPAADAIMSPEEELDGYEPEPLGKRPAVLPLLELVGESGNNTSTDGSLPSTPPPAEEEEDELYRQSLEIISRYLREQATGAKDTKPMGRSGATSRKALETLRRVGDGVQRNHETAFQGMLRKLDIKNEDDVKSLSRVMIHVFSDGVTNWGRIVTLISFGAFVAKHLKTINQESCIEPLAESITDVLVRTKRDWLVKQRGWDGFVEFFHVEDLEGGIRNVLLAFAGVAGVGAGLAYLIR

CCOCCCN=C(S)Nc1ccc2nc(N3CCCC3)cc(C)c2c1
AC50 [1]: 100 µM (inactive)

Cc1cc(C)nc(NNS(=O)(=O)c2ccc(F)c(Cl)c2)n1
EC50 [2]: > 40 µM (inactive) | IC50 [3]: 23.9 µM (not active)

COc1cc([N+](=O)[O-])ccc1-c1ccc(/C=C2\C(=O)ON=C2c2ccccc2)o1
CC50 [4]: 22.1 µM (active)

O=C(C[C@@H]1C[C@@H]2c3cc(NC(=O)C4CCOCC4)ccc3O[C@@H]2[C@H](CO)O1)NCCc1ccccc1
AC50 [5]: 37.3 µM (active)

CCN(CC)CCCNC(=O)C1CCN(c2ncnc3c2sc2cccc(F)c23)CC1
AC50 [1]: 52 µM (active)

COc1cc(N)c2ncccc2c1Cl
IC50 [6]: 69.4 µM (inactive)

Cc1ccc(C(=O)Nc2nnc(-c3ccncc3)o2)cc1
CC50 [7]: > 20 µM (active) | IC50 [8]: 8.2 µM (active)

O=C(CCNc1cccc(Cl)c1)c1ccco1
CC50 [7]: 18.8 µM (active) | IC50 [8]: 18 µM (active)

Cc1nnc(Sc2cc(NCCO)c([N+](=O)[O-])c3nonc23)s1
IC50 [9]: > 50 µM (not active) | IC50 [10]: 6.12 µM (active) | IC50 [6]: > 80 µM (inactive) | AC50 [11]: 19.8 µM (inconclusive) | EC50 [12]: 12.4 µM (active) | IC50 [13]: 6.34 µM (active) | IC50 [14]: 5.35 µM (active)

CCN(CC)C(=O)c1ccc2c(c1)C1C(Cl)C(Sc3ccccc3[N+](=O)[O-])CC1C(C(=O)O)N2 (configuration not stated)
EC50 [15]: > 300 µM (inconclusive) | EC50 [16]: 15.4 µM (inconclusive) | IC50 [17]: 35.4 µM (active) | IC50 [18]: 17.7 µM (active) | AC50 [11]: 4.63 µM (active) | EC50 [12]: 17 µM (active) | IC50 [19]: 59.1 µM (active)

Cc1c(C(=O)N(Cc2ccccc2Cl)C2CCS(=O)(=O)C2)oc2ccccc12 (configuration not stated)
IC50 [6]: 40.3 µM (inactive)

CCN1CCc2c(sc(NC(=O)c3ccc(C(=O)c4ccccc4)cc3)c2C(N)=O)C1
AC50 [1]: 36.6 µM (active)

Cc1ccc(C(=O)CNc2cc(C)ccc2C)cc1
EC50 [2]: > 40 µM (inactive) | IC50 [3]: 9.85 µM (active)

CCOc1ccccc1N1CCN(C2=C(NS(=O)(=O)c3cccs3)C(=O)c3ccccc3C2=O)CC1
CC50 [4]: > 40 µM (active)

C=CCNC1=NN=C(c2cc(C)n(CC=C)c2C)CS1
CC50 [4]: > 40 µM (active)

COc1ccc(OCc2nnc3n2N=C(c2ccccc2)C(CC(=O)O)S3)cc1 (configuration not stated)
IC50 [6]: > 80 µM (inactive)
